Earlier results as cited in patent US8609722B2, “Anesthetic composition for topical administration comprising lidocaine, prilocaine and tetracaine” (priority 2003, dated 2013).
Structures can show the parent of a compound that is named as a salt.

Experiments:
erythrocyte heme protein = settings: the very young may be more susceptible

For CCCNC(C)C(=O)Nc1ccccc1C (centres unmarked) [prilocaine hydrochloride], the “dose above which symptoms of methemoglobinaemia usually occur” value (erythrocyte heme protein) is given as “exceed 8 mg per kg body-weight” and the solubility in water is given as “readily soluble in water”.
